# Measured values reported in publication PMC10787677, “Characterization of a novel aspartic protease from Trichoderma asperellum for the preparation of duck blood peptides” (Applied Microbiology and Biotechnology, 2024).
# Non-standard residues stand in square brackets, D forms with d. Residues, ends and D or L forms follow the SMILES beside them. *: point of attachment. Sta = CC(C)C[C@H](N)[C@@H](O)CC(=O)O; Isovaleryl = CC(C)CC(=O)*
# Biological target: T1, TaproA1 (Trichoderma asperellum, UniProt A0A6V8QUH5)
# T1 construct: mature enzyme about 36 kDa; precursor 521 residues; purified on Q-Sepharose Fast Flow
# T1 sequence (A0A6V8QUH5 189-517 limits assumed): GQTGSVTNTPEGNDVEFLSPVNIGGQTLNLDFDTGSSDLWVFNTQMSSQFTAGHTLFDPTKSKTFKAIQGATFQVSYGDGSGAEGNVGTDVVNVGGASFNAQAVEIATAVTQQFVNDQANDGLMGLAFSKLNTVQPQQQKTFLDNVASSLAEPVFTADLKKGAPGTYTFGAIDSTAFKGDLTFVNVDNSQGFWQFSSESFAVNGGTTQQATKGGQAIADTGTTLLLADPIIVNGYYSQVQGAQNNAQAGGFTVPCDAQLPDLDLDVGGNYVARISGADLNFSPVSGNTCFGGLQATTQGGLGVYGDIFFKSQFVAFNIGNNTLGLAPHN
# Assay: residual casein hydrolysis after […] min preincubation, Folin phenol read-out
# Type: biochemical
# Conditions: read-out: Relative activity ^b (%)
smiles,measurement,value
CC(C)CC(=O)N[C@H](C(=O)N[C@H](C(=O)N[C@@H](CC(C)C)[C@@H](O)CC(=O)N[C@@H](C)C(=O)N[C@@H](CC(C)C)[C@@H](O)CC(=O)O)C(C)C)C(C)C [Pepstatin A] (Isovaleryl-VV[Sta]A[Sta]-OH),activity at 10 µM,0.7 ± 0.1%
